Results taken from US20080132536A1, “PYRAZOLO [3,4-B] PYRIDINE COMPOUNDS, AND THEIR USE AS PDE4 INHIBITORS” (Glaxo Group Limited, priority 2003, published 2008).

Biological target: T1, PDE4B (human recombinant) (Homo sapiens, UniProt Q07343)
T1 construct: made in house
Test: PDE4B inhibition, radioactive SPA and/or IMAP fluorescence polarisation (FP) assay
Type: biochemical
Conditions: for IC50: one reading or average of several (ca. 2-6) readings, SPA and/or FP assay, range given for a group of Examples, read-out: PDE4B pIC50 (±about 0.5) (converted); for PDE4B inhibitory activity compared with the comparable Example of opposite stereochemistry at the CR4R5 (benzylic) carbon atom: comparators: Examples 6, 7, 29, 26, 64, 126, 124, 170, 177
Text: Human recombinant PDE4B, in particular the 2B splice variant thereof (HSPDE4B2B), is disclosed in WO 94/20079 and also M. M. McLaughlin et al., “A low Km, rolipram-sensitive, cAMP-specific phosphodiesterase from human brain: cloning and expression of cDNA, biochemical characterisation of recombinant protein, and tissue distribution of mRNA”, J. Biol. Chem., 1993, 268, 6470-6476. For example, in Example 1 of WO 94/20079, human recombinant PDE4B is described as being expressed in the PDE-deficient yeast Saccharomyces cerevisiae strain GL62, e.g. after induction by addition of 150 uM CuSO4, and 100,000×g supernatant fractions of yeast cell lysates are described for use in the harvesting of PDE4B enzyme.
The ability of compounds to inhibit catalytic activity at PDE4B or 4D (human recombinant), PDE3 (from bovine aorta), PDE5 (human recombinant) or PDE6 (from bovine retina) can optionally be determined by Scintillation Proximity Assay (SPA) in 96-well format.
Test compounds (as a solution in DMSO, preferably about 2 microlitre (ul) volume of DMSO solution) are preincubated at ambient temperature (room temperature, e.g. 19-23° C.) in Wallac Isoplates (code 1450-514) with PDE enzyme in 50 mM Tris-HCl buffer pH 7.5, 8.3 mM MgCl2, 1.7 mM EGTA, 0.05% (w/v) bovine serum albumin for 10-30 minutes (usually 30 minutes). The enzyme concentration is adjusted so that no more than 20% hydrolysis of the substrate defined below occurs in control wells without compound, during the incubation. For the PDE3, PDE4B and PDE4D assays, [5′,8-3H]Adenosine 3′,5′-cyclic phosphate (Amersham Pharmacia Biotech, code TRK.559; or Amersham Biosciences UK Ltd, Pollards Wood, Chalfont St Giles, Buckinghamshire HP8 4SP, UK) is added to give 0.05 uCi per well and about 10 nM final concentration. For the PDE5 and PDE6 assays, [8-^3H]Guanosine 3′,5′-cyclic phosphate (Amersham Pharmacia Biotech, code TRK.392) is added to give 0.05 uCi per well and about 36 nM final concentration. Plates containing assay mixture, preferably approx. 100 ul volume of assay mixture, are mixed on an orbital shaker for 5 minutes and incubated at ambient temperature for 1 hour. Phosphodiesterase SPA beads (Amersham Pharmacia Biotech, code RPNQ 0150) are added (about 1 mg per well) to terminate the assay. Plates are sealed and shaken and allowed to stand at ambient temperature for 35 minutes to 1 hour (preferably 35 minutes) to allow the beads to settle. Bound radioactive product is measured using a WALLAC TRILUX 1450 Microbeta scintillation counter. For inhibition curves, 10 concentrations (1.5 nM-30 uM) of each compound are assayed. Curves are analysed using ActivityBase and XLfit (ID Business Solutions Limited, 2 Ocean Court, Surrey Research Park, Guildford, Surrey GU2 7QB, United Kingdom) Results are expressed as pIC50 values.
The ability of compounds to inhibit catalytic activity at PDE4B (human recombinant) or PDE4D (human recombinant) can optionally be determined by IMAP Fluorescence Polarisation (FP) assay (IMAP Explorer kit, available from Molecular Devices Corporation, Sunnydale, Calif., USA; Molecular Devices code: R8062) in 384-well format.
The IMAP FP assay is able to measure PDE activity in an homogenous, non-radioactive assay format. The FP assay uses the ability of immobilised trivalent metal cations, coated onto nanoparticles (tiny beads), to bind the phosphate group of Fl-AMP that is produced on the hydrolysis of fluorescein-labelled (Fl) cyclic adenosine mono-phosphate (Fl-cAMP) to the non-cyclic Fl-AMP form. […] Binding of Fl-AMP product to the beads (coated with the immobilised trivalent cations) slows the rotation of the bound Fl-AMP and leads to an increase in the fluorescence polarisation ratio of parallel to perpendicular light. Inhibition of the PDE reduces/inhibits this signal increase. […]

T1 sequence (Q07343 1-564 isoform Q07343-2): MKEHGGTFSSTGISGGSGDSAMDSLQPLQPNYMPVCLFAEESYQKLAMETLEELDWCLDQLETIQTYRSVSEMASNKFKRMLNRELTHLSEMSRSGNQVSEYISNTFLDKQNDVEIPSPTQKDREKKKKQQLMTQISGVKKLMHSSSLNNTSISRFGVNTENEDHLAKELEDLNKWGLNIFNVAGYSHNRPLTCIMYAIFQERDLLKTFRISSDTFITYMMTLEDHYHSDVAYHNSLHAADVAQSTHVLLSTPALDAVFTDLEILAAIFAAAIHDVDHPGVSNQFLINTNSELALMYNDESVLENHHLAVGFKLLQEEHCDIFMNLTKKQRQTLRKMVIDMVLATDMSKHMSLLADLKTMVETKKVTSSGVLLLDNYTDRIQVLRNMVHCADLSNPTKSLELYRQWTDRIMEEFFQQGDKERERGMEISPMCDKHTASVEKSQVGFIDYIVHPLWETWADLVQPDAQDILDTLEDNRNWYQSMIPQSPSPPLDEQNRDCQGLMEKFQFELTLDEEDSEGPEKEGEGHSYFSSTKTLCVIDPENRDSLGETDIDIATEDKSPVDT

IC50 [nM] | PDE4B inhibitory activity compared with the comparable Example of opposite stereochemistry at the CR4R5 (benzylic) carbon atom | Structure (SMILES)
0.1 to 2 | – | CCn1ncc2c(NC3CCOCC3)c(C(=O)NC(C)c3ccc(C)cc3)cnc21 (stereo not drawn) [Example 48, 1-ethyl-N-[1-(4-methylphenyl)ethyl]-4-(tetrahydro-2H-pyran-4-ylamino)-1H-pyrazolo[3,4-b]pyridine-5-carboxamide]
0.1 to 2 | – | CCC(NC(=O)c1cnc2c(cnn2CC)c1NC1CCOCC1)c1ccc(C)cc1C (single isomer, unassigned; enantiomer 2) [Example 304, N-[1-(2,4-dimethylphenyl)propyl]-1-ethyl-4-(tetrahydro-2H-pyran-4-ylamino)-1H-pyrazolo[3,4-b]pyridine-5-carboxamide (Enantiomer 2)]
0.501 to 3.16 | – | CCC(NC(=O)c1cnc2c(cnn2CC)c1NC1CCC(C(N)=O)CC1)c1ccc(F)cc1 (mixture of isomers) [Example 350, 4-{[4-(aminocarbonyl)cyclohexyl]amino}-1-ethyl-N-[1-(4-fluorophenyl)propyl]-1H-pyrazolo[3,4-b]pyridine-5-carboxamide]
– | greater PDE4B inhibitory activity | CC[C@@H](NC(=O)c1cnc2c(cnn2CC)c1NC1CCN(C(C)=O)CC1)c1ccccc1 [Example 174, 4-[(1-acetyl-4-piperidinyl)amino]-1-ethyl-N-[(1R)-1-phenylpropyl]-1H-pyrazolo[3,4-b]pyridine-5-carboxamide]
0.794 to 5.01 | greater PDE4B inhibitory activity | CCn1ncc2c(NC3CCOCC3)c(C(=O)N[C@H](C)c3ccc(OC)cc3)cnc21 [Example 63, 1-ethyl-N-{(1R)-1-[4-(methyloxy)phenyl]ethyl}-4-(tetrahydro-2H-pyran-4-ylamino)-1H-pyrazolo[3,4-b]pyridine-5-carboxamide]
0.1 to 2 | – | CCC(NC(=O)c1cnc2c(cnn2CC)c1NC1CCCC(O)C1)c1ccc(Cl)cc1 [Example 282, N-[1-(4-chlorophenyl)propyl]-1-ethyl-4-{[(1S,3R)-and/or (1R,3S)-3-hydroxycyclohexyl]amino}-1H-pyrazolo[3,4-b]pyridine-5-carboxamide]
0.1 to 2 | – | CCC(NC(=O)c1cnc2c(cnn2CC)c1NC1CCC(=NO)CC1)c1ccc(C)c(C)c1 (stereo not drawn) [Example 261, N-[1-(3,4-dimethylphenyl)propyl]-1-ethyl-4-{[4-(hydroxyimino)cyclohexyl]amino}-1H-pyrazolo[3,4-b]pyridine-5-carboxamide]
0.501 to 3.16 | – | CCn1ncc2c(NC3CCC(C(N)=O)CC3)c(C(=O)NC(C)c3ccc(Cl)cc3)cnc21 (mixture of isomers) [Example 349, 4-{[4-(aminocarbonyl)cyclohexyl]amino}-N-[1-(4-chlorophenyl)ethyl]-1-ethyl-1H-pyrazolo[3,4-b]pyridine-5-carboxamide]
0.1 to 2 | – | CCC(NC(=O)c1cnc2c(cnn2CC)c1NC1CCC(=O)CC1)c1ccc(C)cc1 (stereo not drawn) [Example 221, 1-ethyl-N-[1-(4-methylphenyl)propyl]-4-[(4-oxocyclohexyl)amino]-1H-pyrazolo[3,4-b]pyridine-5-carboxamide]
0.1 to 2 | – | CCn1ncc2c(NC3CCOCC3)c(C(=O)N[C@H](C)c3ccc(C)cc3)cnc21 [Example 73, 1-ethyl-N-[(1R)-1-(4-methylphenyl)ethyl]-4-(tetrahydro-2H-pyran-4-ylamino)-1H-pyrazolo[3,4-b]pyridine-5-carboxamide]
0.794 to 5.01 | – | CCn1ncc2c(NC3CCOCC3)c(C(=O)N[C@H](C)c3ccc(Br)cc3)cnc21 [Example 75, N-[(1R)-1-(4-bromophenyl)ethyl]-1-ethyl-4-(tetrahydro-2H-pyran-4-ylamino)-1H-pyrazolo[3,4-b]pyridine-5-carboxamide]
– | greater PDE4B inhibitory activity | CCn1ncc2c(NC3CCC(=O)CC3)c(C(=O)N[C@H](C)c3ccc([N+](=O)[O-])cc3)cnc21 [Example 178, 1-ethyl-N-[(1R)-1-(4-nitrophenyl)ethyl]-4-[(4-oxocyclohexyl)amino]-1H-pyrazolo[3,4-b]pyridine-5-carboxamide]
– | greater PDE4B inhibitory activity | CCn1ncc2c(NC3CCCCC3)c(C(=O)N[C@H](CO)c3ccccc3)cnc21 [Example 127, 4-(cyclohexylamino)-1-ethyl-N-[(1S)-2-hydroxy-1-phenylethyl]-1H-pyrazolo[3,4-b]pyridine-5-carboxamide]
0.501 to 3.16 | – | CCn1ncc2c(N[C@H]3CC[C@@H](C(N)=O)CC3)c(C(=O)N[C@H](C)c3ccc(C)cc3)cnc21 [Example 353, 4-{[cis-4-(aminocarbonyl)cyclohexyl]amino}-1-ethyl-N-[(1R)-1-(4-methylphenyl)ethyl]-1H-pyrazolo[3,4-b]pyridine-5-carboxamide]
0.794 to 5.01 | greater PDE4B inhibitory activity | CCn1ncc2c(NC3CCOCC3)c(C(=O)N[C@H](C)c3ccccc3)cnc21 [Example 8, 1-ethyl-N-[(1R)-1-phenylethyl]-4-(tetrahydro-2H-pyran-4-ylamino)-1H-pyrazolo[3,4-b]pyridine-5-carboxamide]
31.6 to 70.8 | – | CCn1ncc2c(NC3CCOCC3)c(C(=O)N[C@@H](C)c3ccccc3)cnc21 [Example 7, 1-ethyl-N-[(1S)-1-phenylethyl]-4-(tetrahydro-2H-pyran-4-ylamino)-1H-pyrazolo[3,4-b]pyridine-5-carboxamide]
0.501 to 3.16 | – | CCn1ncc2c(N[C@H]3CC[C@@H](C(N)=O)CC3)c(C(=O)N[C@H](C)c3ccccc3)cnc21 [Example 354, 4-{[cis-4-(aminocarbonyl)cyclohexyl]amino}-1-ethyl-N-[(1R)-1-phenylethyl]-1H-pyrazolo[3,4-b]pyridine-5-carboxamide]
12.6 to 25.1 | – | CCn1ncc2c(NC3CCOCC3)c(C(=O)NC(C)(C)c3ccccc3)cnc21 [Example 2, 1-ethyl-N-(1-methyl-1-phenylethyl)-4-(tetrahydro-2H-pyran-4-ylamino)-1H-pyrazolo[3,4-b]pyridine-5-carboxamide]
0.1 to 2 | – | CCC(NC(=O)c1cnc2c(cnn2CC)c1NC1CCOCC1)c1ccc(C)cc1C (stereo not drawn) [Example 98, N-[1-(2,4-dimethylphenyl)propyl]-1-ethyl-4-(tetrahydro-2H-pyran-4-ylamino)-1H-pyrazolo[3,4-b]pyridine-5-carboxamide]
31.6 to 70.8 | – | CC[C@H](NC(=O)c1cnc2c(cnn2CC)c1NC1CCOCC1)c1ccccc1 [Example 6, 1-ethyl-N-[(1S)-1-phenylpropyl]-4-(tetrahydro-2H-pyran-4-ylamino)-1H-pyrazolo[3,4-b]pyridine-5-carboxamide]
0.794 to 5.01 | – | CCn1ncc2c(NC3CCOCC3)c(C(=O)NC(C)c3ccc(Br)cc3)cnc21 (stereo not drawn) [Example 50, N-[1-(4-bromophenyl)ethyl]-1-ethyl-4-(tetrahydro-2H-pyran-4-ylamino)-1H-pyrazolo[3,4-b]pyridine-5-carboxamide]
0.1 to 2 | – | CCn1ncc2c(NC3CCC(=O)CC3)c(C(=O)N[C@H](C)c3ccc(C)cc3)cnc21 [Example 191, 1-ethyl-N-[(1R)-1-(4-methylphenyl)ethyl]-4-[(4-oxocyclohexyl)amino]-1H-pyrazolo[3,4-b]pyridine-5-carboxamide]
